In patent publication US9771602B2 (priority 2013, dated 2017):
“And” between values parts separate entries of the source, which are not always exact repeats. Equal values may be shown once. Where a name gives a salt, the structure may show the parent alone. Read-outs that look alike come from different tables or passages of the source.

What was measured:
[1] = system: ethanologen yeast PNY 827; experiment: microbe, parasite or virus in culture; assay type: cell-based, Saccharomyces cerevisiae; conditions: for Ki: read-out: KI (inhibitory constant on growth)
[2] = system: S. cerevisiae yeast strains PNY0860-1A, PNY827 and CEN.PK 113-7D; experiment: Filter-disk growth inhibition assay with AHAS inhibitors on top agar plates; assay type: cell-based; conditions: filter disks containing 20 μg or 10 μg AHAS inhibitor; 72 hours at 30° C.
[3] = system: mixed cultures of ethanologen S. cerevisiae PNY 827 and the butanologen yeast S. cerevisiae PNY 2129; assay type: cell-based
[4] = system: NYLA84 ILV2-410::loxP71/66 with pLH468 and pLH475-JEA1; assay type: cell-based, S. cerevisiae; conditions: 0 μg/ml to 50 μg/ml sulfometuron methyl; strains expressing cytosolic acetolactate synthase
[5] = fit to squared inhibition kinetics
[6] = Saccharomyces cerevisiae, PNY827, read-out: IC50 on growth (inhibitor concentration with 50% μ°max)
[7] = fit to hybrid inhibition kinetics model

Cc1cn[nH]c1.Cl [4-methylpyrazole hydrochloride]
μ°max (fitted maximum specific growth rate without inhibitor) [1]: 0.58 L/h | Ki [1, 5]: 41 mM | inhibitor-based mumax (corrected for effect of DMSO) ([1]; hydrochloride): 0.48 L/h and 0.38 L/h | observed μmax ([1]; hydrochloride): 0.48 L/h and 0.24 L/h

O=C(O)c1cn[nH]c1 [4-pyrazolecarboxylic acid]
inhibitor-based mumax (corrected for effect of DMSO) [1]: 0.59 L/h and 0.50 L/h | μ°max (fitted maximum specific growth rate without inhibitor) [1]: 0.60 L/h | Ki [1, 5]: 100 mM

COc1cc(OC)nc(NC(=O)NS(=O)(=O)c2ncccc2C(=O)N(C)C)n1 [Accent, nicosulfuron methyl]
zones of growth inhibition (inhibition of yeast growth) [2]: did not inhibit

COC(=O)c1ccccc1S(=O)(=O)NC(=O)Nc1nc(C)nc(OC)n1 [Ally, metsulfuron methyl]
zones of growth inhibition (inhibition of yeast growth) [2]: inhibit growth

CCOC(=O)c1ccccc1S(=O)(=O)NC(=O)Nc1nc(Cl)cc(OC)n1 [Classic, chlorimuron ethyl]
zones of growth inhibition (inhibition of yeast growth) [2]: inhibit growth

C[S+](C)[O-] [DMSO]
μmax (maximum specific growth rate) [1]: 0.56 L/h | Ki [1]: ~16 mM

COC(=O)c1sccc1S(=O)(=O)NC(=O)Nc1nc(C)nc(OC)n1 [Harmony, thifensulfuron methyl]
zones of growth inhibition (inhibition of yeast growth) [2]: did not inhibit

O=C/C=C/c1ccccc1 [cinnamaldehyde, trans-cinnamaldehyde]
inhibitor-based mumax (corrected for effect of DMSO) [1]: 0.64 L/h and 0.63 L/h and 0.55 L/h | observed μmax [1]: 0.64 L/h and 0.63 L/h and 0.55 L/h | μ°max (fitted maximum specific growth rate without inhibitor) [1]: 0.62 L/h | IC50 [1, 6]: 0.25 mM | Ki [1, 5]: 0.25 mM | cell growth ([1]; non-DMSO experiments: 200 mM, 100 mM, 50 mM, 25 mM, 10 mM, 1 mM): in none of the non-DMSO experiments any cell growth was observed | DHIV + DHMB [3]: 0.0 mM | ratio of butanol vs. ethanol produced compared with no addition ([3]; 250 μM, inoculum ratios 1:1 and 1:11, EPT=8 h and EPT=48 h): lower | growth of mixed cultures ([3]; 25 mM, both mixed cultures (1:1 and 1:11), EPT=8 h and EPT=48 h): No growth

C=O [formaldehyde]
μ°max (fitted maximum specific growth rate without inhibitor) [1]: 0.59 L/h | IC50 [1, 6]: 0.9 mM

O=CC(=O)O [glyoxylic acid, glyoxylic acid sodium salt monohydrate]
μ°max (fitted maximum specific growth rate without inhibitor) [1]: 0.60 L/h | μmax (maximum specific growth rate) ([1]; sodium salt monohydrate): 0.59 L/h and 0.55 L/h

c1cn[nH]c1 [pyrazole]
overall observable μ°max [1]: 0.60 L/h | μ°max 1 [1]: 0.52 L/h | μ°max 2 [1]: 0.08 L/h | IC50 [1, 6]: 3.3 mM | Ki [1, 7]: 2.8 mM | DHIV + DHMB [3]: 0.0 mM | butanol-to-ethanol ratio compared with no inhibitor ([3]; 3 mM and 30 mM, inoculum ratios 1:1 and 1:11, EPT=8 h): dramatically increased | butanol:ethanol ratio compared with no inhibitor ([3]; 30 mM, both inoculum ratios, EPT=48 h): significantly increased

O=S([O-])[O-].[Na+].[Na+] [sulfite, sodium sulfite]
OD600corr [ ] [1]: 0.081 and 0.087 and 0.088 and 0.092 | OD600corr [ ] ([1]; 1 mM (F8-su-1), time 1.00 h): 0.082 | OD600corr [ ] ([1]; 1 mM (F8-su-1), time 2.25 h): 0.121 | OD600corr [ ] ([1]; 1 mM (F8-su-1), time 3.25 h): 0.185 | OD600corr [ ] ([1]; 1 mM (F8-su-1), time 4.25 h): 0.307 | OD600corr [ ] ([1]; 1 mM (F8-su-1), time 6.00 h): 1.102 | OD600corr [ ] ([1]; 1 mM (F8-su-1), time 23.67 h): 11.157 | μmax (maximum specific growth rate) ([1]; 1 mM inhibitor): 0.59 L/h | OD600corr [ ] ([1]; 2 mM (F9-su-2), time 1.00 h): 0.086 | OD600corr [ ] ([1]; 2 mM (F9-su-2), time 2.25 h): 0.120 | OD600corr [ ] ([1]; 2 mM (F9-su-2), time 3.25 h): 0.173 | OD600corr [ ] ([1]; 2 mM (F9-su-2), time 4.25 h): 0.265 | OD600corr [ ] ([1]; 2 mM (F9-su-2), time 6.00 h): 0.887 | OD600corr [ ] ([1]; 2 mM (F9-su-2), time 23.67 h): 12.217 | μmax (maximum specific growth rate) ([1]; 2 mM inhibitor): 0.54 L/h | OD600corr [ ] ([1]; 5 mM (F10-su-3), time 1.00 h): 0.090 | OD600corr [ ] ([1]; 5 mM (F10-su-3), time 2.25 h): 0.116 | OD600corr [ ] ([1]; 5 mM (F10-su-3), time 3.25 h): 0.153 | OD600corr [ ] ([1]; 5 mM (F10-su-3), time 4.25 h): 0.208 | OD600corr [ ] ([1]; 5 mM (F10-su-3), time 6.00 h): 0.392 | OD600corr [ ] ([1]; 5 mM (F10-su-3), time 9.58 h): 2.572 | OD600corr [ ] ([1]; 5 mM (F10-su-3), time 23.67 h): 11.717 | μmax (maximum specific growth rate) ([1]; 5 mM inhibitor): 0.33 L/h | OD600corr [ ] ([1]; 10 mM (F11-su-4), time 1.00 h): 0.085 | OD600corr [ ] ([1]; 10 mM (F11-su-4), time 2.25 h): 0.111 | OD600corr [ ] ([1]; 10 mM (F11-su-4), time 3.25 h): 0.140 | OD600corr [ ] ([1]; 10 mM (F11-su-4), time 4.25 h): 0.175 | OD600corr [ ] ([1]; 10 mM (F11-su-4), time 6.00 h): 0.268 | OD600corr [ ] ([1]; 10 mM (F11-su-4), time 9.58 h): 1.102 | OD600corr [ ] ([1]; 10 mM (F11-su-4), time 23.67 h): 11.437 | μmax (maximum specific growth rate) ([1]; 10 mM inhibitor): 0.23 L/h | OD600corr [ ] ([1]; 20 mM (F3-su-1), time 1.50 h): 0.099 | OD600corr [ ] ([1]; 20 mM (F3-su-1), time 2.67 h): 0.115 | OD600corr [ ] ([1]; 20 mM (F3-su-1), time 4.00 h): 0.150 | OD600corr [ ] ([1]; 20 mM (F3-su-1), time 5.33 h): 0.182 | OD600corr [ ] ([1]; 20 mM (F3-su-1), time 6.75 h): 0.226 | OD600corr [ ] ([1]; 20 mM (F3-su-1), time 9.42 h): 0.396 | OD600corr [ ] ([1]; 20 mM (F3-su-1), time 23.25 h): 9.697 | μmax (maximum specific growth rate) ([1]; 20 mM inhibitor): 0.18 L/h | OD600corr [ ] ([1]; 50 mM (F4-su-2), time 1.50 h): 0.095 | OD600corr [ ] ([1]; 50 mM (F4-su-2), time 2.67 h): 0.116 | OD600corr [ ] ([1]; 50 mM (F4-su-2), time 4.00 h): 0.135 | OD600corr [ ] ([1]; 50 mM (F4-su-2), time 5.33 h): 0.161 | OD600corr [ ] ([1]; 50 mM (F4-su-2), time 6.75 h): 0.192 | OD600corr [ ] ([1]; 50 mM (F4-su-2), time 9.42 h): 0.295 | OD600corr [ ] ([1]; 50 mM (F4-su-2), time 23.25 h): 10.717 | μmax (maximum specific growth rate) ([1]; 50 mM inhibitor): 0.14 L/h | μ°max 1 [1, 7]: 0.46 L/h | μ°max 2 [1, 7]: 0.15 L/h | Ki [1, 7]: 4.4 mM | overall observable μ°max ([1]; predicted by hybrid inhibition kinetics model): 0.61 L/h | IC50 ([1]; read-out: IC50 on growth (inhibitor concentration with 50% μ°max), derived from inhibition kinetics and fitted parameters): 6.2 mM

COC(=O)c1ccccc1S(=O)(=O)NC(=O)Nc1nc(C)cc(C)n1 [sulfometuron methyl]
zones of growth inhibition (inhibition of yeast growth) [2]: inhibit growth | overall observable μ°max [1]: 0.59 L/h | μmax (maximum specific growth rate) [1]: 0.04 L/h and 0.05 L/h | μ°max 1 [1]: 0.55 L/h | μ°max 2 [1]: 0.04 L/h | IC50 [1, 6]: < 0.1 mM | Ki [1, 7]: < 0.1 mM | resistance (growth scored after overnight incubation) [4]: higher resistance
